In publication PMC4552634, “A New Set of Chemical Starting Points with Plasmodium falciparum Transmission-Blocking Potential for Antimalarial Drug Discovery” (PLoS ONE, 2015):
Like-named read-outs stand apart in the source and are kept apart here.

Legend:
[1] = test system: P. falciparum stage V gametocytes; experiment: Gametocytocidal ATP bioluminescence assay (single point 5 μM and 1 μM, dose-response); assay type: cell-based, Plasmodium falciparum; details: for Ratio IC50 HepG2/IC50 P. falciparum: IC50 HepG2 divided by IC50 P. falciparum gametocytes
Description: Purified stage IV-V gametocytes were obtained as previously described [10]. Single point ATP bioluminescence assay and dose–response of positive hits was determined in accordance with the previously published protocol [10].

[2] = test system: luciferase reaction (BacTiter-Glo); experiment: Interference assay (inhibition of the BacTiter-Glo luciferase reaction); assay type: biochemical; parameters: concentration or dose not given beside the values; details: ATP interference assay
Description: To discard possible false-positive results, we performed an interference assay in parallel. […] […]. The ATP solution was made by dissolving ATP powder (ATP standard from the ATPlite 1 step assay kit, reference 6016731, Perkin Elmer) in culture medium. The positive control used was the Luciferase Inhibitor I Calbiochem (Merck, 119113) at 100 μM.

[3] = Cytotoxicity in HepG2 cells (intracellular ATP, ATPlite, 48 h); assay type: cell-based, human; details: human, HepG2 cells
HepG2 cells = experiment: as above; assay type: cell-based, human; details: IC50 HepG2 divided by IC50 P. falciparum gametocytes
[4] = test system: P. falciparum asexual stages; details: TCAMS data, cited from earlier work
[5] = Plasmodium falciparum, P. falciparum gametocytes, average, read-out: IC50 Pf Gametocytes average, IC50 (µM) average
[6] = sexual stages (gametocytes), dose-response, read-out: IC50 sexual
[7] = IC50 per ratio column head, unit inferred, read-out: Cytotoxicity in HepG2
[8] = asexual stages, read-out: IC50 asexual
[9] = HepG2, 48 h exposure, intracellular ATP, read-out: IC50 (μM) Cytotoxicity HepG2
[10] = P. falciparum asexual stages, read-out: IC50 (µM) Pf asexual stages
[11] = Plasmodium falciparum, sexual stages (gametocytes), dose-response, read-out: IC50 sexual

| Structure (SMILES) | Ratio IC50 HepG2/IC50 P. falciparum [1] | IC50 [1, 5] [µM] | IC50 [1, 6] [µM] | % Control luminiscence [2] [%] | IC50 at 48 h [3, 7] [µM] | Ratio IC50 HepG2/IC50 P. falciparum (HepG2 cells) | IC50 [4, 8] [µM] | IC50 at 48 h [3, 9] [µM] | IC50 [4, 10] [µM] | IC50 [1, 11] [µM] | IC50 ([1]; Plasmodium falciparum, gametocytes (S9 Table), read-out: pIC50game (converted)) [µM] | inhibition at 5 µM ([1]; Plasmodium falciparum, gametocytes, primary screen at 5 μM (S9 Table, CSA analogs)) [%] |
| --- | --- | --- | --- | --- | --- | --- | --- | --- | --- | --- | --- | --- |
| COc1ccc(CNCc2ccc(F)cc2)cc1-c1ccc(OC)c(S(=O)(=O)NCCN2CCCC2)c1 [TCMDC-132295] | 16 | 0.72 | 0.717 | 99 | 11.4 | 16 | 0.786 | – | – | – | – | – |
| NCc1ccc(CNCc2cccc(-c3ccc(-c4nc5ccccc5[nH]4)cc3)c2)cc1 [TCMDC-132815] | 45 | 0.48 | 0.483 | 100 | 21.8 | 45 | 0.717 | – | – | – | – | – |
| c1cc(CNCCN2CCNCC2)cc(-c2cccc(-c3nc4ccccc4[nH]3)c2)c1 [TCMDC-132859] | 27 | 0.71 | – | 100 | 19.3 | 27 | 0.959 | 19 | 0.96 | – | – | – |
| Fc1ccc2[nH]c(-c3cccc(-c4cccc(CNCCN5CCNCC5)c4)c3)nc2c1 [TCMDC-132860] | 27 | 0.74 | – | 100 | 19.6 | 27 | 0.842 | 20 | 0.84 | 0.737 | – | – |
| Fc1ccc2[nH]c(-c3cccc(-c4ccc(CNCCN5CCNCC5)cc4)c3)nc2c1 [TCMDC-132863] | 17 | 1.45 | – | 100 | 24.2 | 17 | 0.904 | 24 | 0.9 | 1.45 | – | – |
| Cc1cccc2nc(-c3ccc(-c4cccc(CNCCN5CCNCC5)c4)cc3)[nH]c12 [TCMDC-132867] | 16 | 0.84 | – | 100 | 13.4 | 16 | 1.23 | 13 | 1.23 | – | – | – |
| Fc1ccc2[nH]c(-c3ccc(-c4ccc(CNCCN5CCNCC5)cc4)s3)nc2c1 [TCMDC-132869] | >47 | 0.53 | – | 100 | > 25 | >47 | 0.779 | – | 0.78 | – | 0.53 | 101 |
| FC(F)(F)c1ccc2[nH]c(-c3cccc(-c4ccc(CNCCN5CCNCC5)cc4)c3)nc2c1 [TCMDC-132872] | 15 | 0.86 | – | 100 | 12.6 | 15 | 0.862 | 13 | 0.86 | – | – | – |
| c1cc(CN2CCC(CCN3CCCCC3)CC2)cc(-c2cccc(-c3nc4ccccc4[nH]3)c2)c1 [TCMDC-133920] | 45 | 0.29 | – | 100 | 13.1 | 45 | 0.14 | 13 | – | 0.293 | – | – |
| Cc1n[nH]c2ccc(-c3ccc4nccc(N5CCC(N)CC5)c4c3)cc12 [TCMDC-134315] | 30 | 0.38 | – | 100 | 11.7 | 30 | 0.591 | 12 | 0.59 | 0.383 | – | – |
| COc1cccc(Nc2c(C(N)=O)cnc3ccc(-c4ccc([S+](C)[O-])cc4)cc23)c1 (stereo not shown) [TCMDC-135184] | >18 | 1.43 | – | 100 | > 25 | >18 | 0.186 | – | 0.19 | 1.43 | – | – |
| COc1cc(NC(=O)c2sc(-c3ccc(Cl)cc3)cc2NC(=O)c2cccnc2)ccc1OCCN1CCCC1 [TCMDC-135397] | >41 | 0.61 | 0.613 | 100 | > 25 | >41 | 0.38 | – | – | – | – | – |
| Cc1ccc(-n2c(C)nc3c(Nc4ccc(-c5ccncc5)cc4)ncnc32)c(C)c1 [TCMDC-136289] | >47 | 0.53 | 0.533 | 100 | > 25 | >47 | 0.101 | – | – | – | – | – |
| CCn1ncc2c(NC3CCOCC3)c(CNC(=O)c3ccnn3C)c(C)nc21 [TCMDC-136560] | >15 | 1.64 | – | 100 | > 25 | >15 | 0.533 | – | 0.53 | 1.64 | – | – |
| COc1ccc(Nc2nccc(-c3ccc4ccnc(NCCCCN)c4c3)n2)cc1 [TCMDC-136642] | >77 | 0.33 | – | 99 | > 25 | >77 | 0.75 | – | – | 0.327 | – | – |
| CN(C)CCNC(=O)c1ccc(-c2cnc3ccc(NCc4ccc(Cl)c(Cl)c4)nn23)cc1 [TCMDC-136678] | 50 | 0.33 | – | 100 | 16.7 | 50 | 0.913 | 17 | 0.91 | 0.333 | – | – |
| Ic1cc(CNC2CCCCC2)ccc1OCc1cccc(COc2ccc(CNC3CCCCC3)cc2I)c1 [TCMDC-137261] | >75 | 0.33 | 0.333 | 100 | > 25 | >75 | 0.829 | – | – | – | – | – |
| C/C=C/C=C/C1=NCCc2cc(OCCC)ccc21 [TCMDC-137442] | 25 | 0.75 | – | 100 | 19 | 25 | 0.914 | – | 0.91 | 0.747 | – | – |
| COc1ccc2nc3cc(Cl)ccc3c(NCCN3CCN(C)CC3)c2c1 [TCMDC-137476] | 10 | 1.88 | – | 100 | 19.3 | 10 | 0.124 | 19 | 0.12 | 1.88 | – | – |
| CCCCN1CCN(CCCCNc2c3ccccc3nc3ccccc23)CC1 [TCMDC-137569] | 11 | 1.19 | – | 100 | 12.7 | 11 | 0.167 | 13 | 0.17 | – | – | – |
